Laboratory results as given in patent publication EP0428486B1, “Polymyxin conjugates” (SANDOZ LTD., priority 1989, dated 1991).

How the values were obtained:
[1] = system: endotoxin (0111B₄); assay: PMB anti-endotoxin evaluation (endotoxin-induced lethality in galactosamine-hypersensitized mice), i.p.; type: in vivo, Male CB57BL/c mice
Protocol: (§1) As used herein the following definitions apply: • LD₀ is the highest non-toxic dose of PMB or its conjugate; • LD₁₀₀ is the dose of PMB or its conjugated form which results in 90-100% lethality when injected into a normal test animal; • PD₁₀₀ is the dose of polymyxin B or its conjugated form which, when injected into a hypersensitized test animal, results in at least 95 % survival; • Therapeutic Index (TI) is calculated by dividing LD₁₀₀ by PD₁₀₀.
Male CB57BL/c mice (18-22 g, Jackson Labs) are used throughout this study. Animals are given endotoxin (0111B₄ from List Biologicals, Palo Alto, CA, USA) and galactosamine to hypersensitize, as described in Galanos et al., Proc. Natl. Acad. Sci. USA 76 (1979) 5939. The endotoxin and galactosamine (320 mg/kg) are injected intraperitoneally in 0.5 ml pyrogen-free isotonic saline per animal between 13:00 and 15:00 to avoid diurnal variation. From a dose-response study, it is determined that 0.01 mg/kg endotoxin produces 85-95 % lethality. Animals are observed each day for 6 days after injection.
PMB (native and conjugated forms) are evaluated for their ability to neutralize endotoxin by either pre-mixing with endotoxin for 60 minutes before i.p. injection or by coadministration of the substances as a single i.p. injection. […]

[2] = system: E.coli 0111B4 endotoxin; assay: Endotoxin-induced lethality test, i.v. treatment, Example 4; type: in vivo; conditions: i.v. injection 1-3 minutes before an LD90 i.p. injection of E.coli 0111B4 endotoxin (0.5 µg/kg)
[3] = system: non-sensitized mice; assay: PMB (native and conjugated forms) induced lethality, i.p.; type: in vivo, Male CB57BL/c mice; conditions: intraperitoneal injection, lethality monitored for 7 days
Protocol: as §1
PMB (native and conjugated forms) are evaluated for their inherent toxicity in non-sensitized mice. Male CB57BL/c mice (18-22 g, Jackson Labs) are used throughout this study. Animals are given either native PMB or conjugated PMB by intraperitoneal injection (0.5 ml/animal) and lethality is monitored for 7 days. The LD₁₀₀ is determined by varying the dose of PMB (native and conjugated forms) that result in 100 % lethality. From 10 to 20 animals are used for each dose.

[4] = Toxicity (lethality) after i.v. injection, Example 4; type: in vivo
Protocol: The ultra-pure PMB-conjugate has an LD₀ of > 100 mg/kg and it has not been possible to establish an LD₁₀₀ due to its inherent non-toxicity. Comparisons in the table below are made between the highest non-toxic dose of PMB (native or conjugated): […]

Substance polymyxin B [Native PMB] has a PD₁₀₀ ([1]; PMB or conjugate allowed to react with the endotoxin for 60 min before i.p. injection) of 2 mg/kg, a PD₁₀₀ ([1]; i.p., hypersensitized mice (galactosamine 320 mg/kg, endotoxin 0.01 mg/kg), pre-mixing or coadministration not stated for these rows) of 2 mg/kg and a PD₁₀₀ [2] of 0.1 mg/kg. The LD₁₀₀ [3] was 25 mg/kg, the LD₁₀₀ i.v. ([4]; i.v.) was 9.5 mg/kg and the LD₀ ([4]; i.v. injection, lethality monitored over 7 days, highest non-toxic dose) was 5 mg/kg.
